Consider 12 molecules from patent publication US20130345205A1, “SUBSTITUTED BICYCLIC ARALKYL PYRAZOLE LACTAM ANALOGS AS ALLOSTERIC MODULATORS OF MGLUR5 RECEPTORS” (Vanderbilt University, priority 2012, published 2013).

Bounds are passed on as bounds.

The target in one series is human mGluR5 (Homo sapiens, UniProt P41594). Briefly: Cell-based functional Ca2+ mobilization assay (FDSS), potentiation of glutamate EC20 response. To be noted: H10H cell-line (HEK, recombinant human mGluR5); for Emax: glutamate EC20, maximum average response at a single concentration, percent of maximal glutamate response; for EC50: positive allosteric modulation in presence of glutamate EC20, concentration in mol/L. The source says: Human mGluR5a cDNA in pCMV6-XL6 mammalian expression plasmid was purchased from OriGene Technologies, Inc. (catalogue number SC326357) and subcloned into pcDNA3.1(−). Human embryonic kidney (HEK) 293A cells were then transfected with human mGluR5a pcDNA3.1(−) using LipofectAmine2000 (Invitrogen) and monoclones were selected and tested for functional response using a Ca^2+ mobilization assay. Monoclones were named for the species (“H” for human) plus the location on the plate (e.g. “10H”).
HEK cells transfected with the human mGluR5a receptor (H10H or H12H cell line) were plated at 15,000 cells/well in clear-bottomed poly-D-lysine-coated assay plates (BD Falcon) in glutamate-glutamine-free growth medium and incubated overnight at 37° C. and 5% CO2. Cell-lines used were either the H10H or H12H cell-lines expressing the human mGluR5 receptor. The following day, the growth medium was removed and the cells were washed with assay buffer containing 1× Hank's balanced salt solution (Invitrogen, Carlsbad, Calif.), 20 mM HEPES, 2.5 mM probenecid, pH 7.4 and left with 20 μL of this reagent. Following this step, the cells were loaded with calcium indicator dye, fluo-4 AM, to a final concentration of 2 μM and incubated for 40-45 min at 37° C. The dye solution was removed and replaced with assay buffer. Cell plates were held for 10-15 min at room temperature and were then loaded into the Functional Drug Screening System 6000 (FDSS 6000, Hamamatsu, Japan).
After establishment of a fluorescence baseline for about 3 seconds, the compounds of the present invention were added to the cells, and the response in cells was measured. 2.3 minutes later an EC20 concentration of the mGluR5 receptor agonist glutamate was added to the cells, and the response of the cells was measured for about 1.7 minutes. All test compounds were dissolved and diluted to a concentration of 10 mM in 100% DMSO and then serially diluted into assay buffer for a 2× stock solution in 0.6% DMSO; stock compounds were then added to the assay for a final DMSO concentration of 0.3% after the first addition to the assay well. Calcium fluorescence measures were recorded as fold over basal fluorescence; raw data was then normalized to the maximal response to glutamate. Potentiation of the agonist response of the mGluR5 receptor in the present invention was observed as an increase in response to submaximal concentrations of glutamate in the presence of compound compared to the response to glutamate in the absence of compound.
The concentration-response curves of compounds of the present invention, obtained in the presence of EC20 of mGluR5 receptor agonist glutamate to determine positive allosteric modulation, were generated using Microsoft Excel with IDBS XLFit add-ins. The raw data file containing all time points was used as the data source in the analysis template. This was saved by the FDSS as a tab-delimited text file. Data were normalized using a static ratio function (F/F0) for each measurement of the total 350 values per well divided by each well's initial value. Data was then reduced as to peak amplitudes (Max-Initial Min) using a time range that starts approximately 1 second after the glutamate EC20 addition and continues for approximately 40 seconds. This is sufficient time to capture the peak amplitude of the cellular Calcium response. Individual amplitudes were expressed as % EMax by multiplying each amplitude by 100 and then dividing the product by the mean of the amplitudes derived from the glutamate ECMax-treated wells. pEC50 values for test compounds were generated by fitting the normalized values versus the log of the test compound concentration (in mol/L) using a 4 parameter logistic equation where none of the parameters were fixed. Each of the three values collected at each concentration of test compound were weighted evenly. Individual values falling outside the 95% prediction limits of the curve fit were automatically excluded from the fit. […]

Sequence of human mGluR5 (P41594 21-1180 isoform P41594-2 limits assumed): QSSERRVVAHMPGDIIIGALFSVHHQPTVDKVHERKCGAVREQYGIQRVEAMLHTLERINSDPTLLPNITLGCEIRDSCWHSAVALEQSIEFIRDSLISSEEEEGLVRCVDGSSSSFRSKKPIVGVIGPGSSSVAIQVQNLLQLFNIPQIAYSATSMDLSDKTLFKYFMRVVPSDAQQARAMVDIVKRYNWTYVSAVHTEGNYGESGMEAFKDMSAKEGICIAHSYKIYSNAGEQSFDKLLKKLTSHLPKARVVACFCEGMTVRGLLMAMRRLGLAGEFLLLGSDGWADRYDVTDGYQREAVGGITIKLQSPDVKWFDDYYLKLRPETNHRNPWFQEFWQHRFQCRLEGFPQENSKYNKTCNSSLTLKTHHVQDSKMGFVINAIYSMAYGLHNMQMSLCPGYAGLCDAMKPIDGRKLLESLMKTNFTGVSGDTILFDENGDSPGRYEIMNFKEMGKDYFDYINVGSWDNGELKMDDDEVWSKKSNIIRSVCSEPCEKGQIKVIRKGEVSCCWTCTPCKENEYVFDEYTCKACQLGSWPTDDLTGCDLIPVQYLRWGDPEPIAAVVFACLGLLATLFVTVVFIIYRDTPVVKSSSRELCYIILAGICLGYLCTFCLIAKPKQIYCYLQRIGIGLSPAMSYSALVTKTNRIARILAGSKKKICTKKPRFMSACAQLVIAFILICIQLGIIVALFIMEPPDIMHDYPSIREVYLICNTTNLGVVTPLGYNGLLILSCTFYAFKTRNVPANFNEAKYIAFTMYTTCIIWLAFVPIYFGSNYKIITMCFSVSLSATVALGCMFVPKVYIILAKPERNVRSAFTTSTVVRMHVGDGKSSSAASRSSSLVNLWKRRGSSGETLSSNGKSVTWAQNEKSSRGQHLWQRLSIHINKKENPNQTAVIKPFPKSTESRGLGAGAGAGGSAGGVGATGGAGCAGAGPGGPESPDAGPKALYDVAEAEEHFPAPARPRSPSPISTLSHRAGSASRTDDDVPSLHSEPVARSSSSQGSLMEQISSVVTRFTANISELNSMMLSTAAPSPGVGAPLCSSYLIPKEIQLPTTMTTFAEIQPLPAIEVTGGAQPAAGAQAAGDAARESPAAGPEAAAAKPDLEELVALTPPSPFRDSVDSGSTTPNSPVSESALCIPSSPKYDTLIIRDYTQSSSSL

On to `Cc1cc(CN2CCn3nc(COc4ccccc4)cc3C2=O)no1` [Example B89], for which the melting point is 187.5 °C. Also, on human mGluR5, the Emax amounted to 66% and the EC50 is 955 nM.

In turn, `O=C1c2cc(COc3ccccc3)nn2CCN1Cc1nc2ccccc2s1` [Example B91] displayed a melting point of 105.8 °C. Besides, on human mGluR5, the maximal effect (Emax) stood at 69% and the EC50 was 67.6 nM.

`O=C1c2cc(COc3ccccc3)nn2CCN1Cc1nc2ccccc2o1` [Example B92] showed a melting point of 145.4 °C. Further, on human mGluR5, the Emax amounted to 65% and the EC50 is 282 nM.

`O=C1c2cc(COc3ccccc3)nn2CCN1Cc1cccc2cccnc12` [Example B93] gave a melting point of 131.3 °C. At human mGluR5, the Emax is 73% and the EC50 was 25.7 nM.

Consider `O=C1c2cc(COc3ccccc3)nn2CCN1Cc1nccc2ccccc12` [Example B94], for which the melting point was determined as 137.6 °C. For the same molecule, on human mGluR5, the Emax worked out at 76% and the EC50 was 123 nM.

`O=C1c2cc(COc3ccccc3)nn2CCN1Cc1ccc(C(F)(F)F)nc1` [Example B95]: the melting point came to 115.4 °C. On human mGluR5, the Emax is 75% and the EC50 was 372 nM.

Regarding `Cc1ncccc1CN1CCn2nc(COc3ccccc3)cc2C1=O` [Example B96], the melting point was found to be 137.5 °C. Moreover, at human mGluR5, the Emax was 67% and the EC50 was 1000 nM.

For the molecule `Cc1nc(CN2CCn3nc(COc4ccccc4)cc3C2=O)cs1` [Example B97], the melting point was 121.9 °C. Further, at human mGluR5, the Emax worked out at 65% and the EC50 is 417 nM.

`Cn1c(CN2CCn3nc(COc4ccccc4)cc3C2=O)nc2ccccc21` [Example B98] gave a melting point greater than 300 °C. On human mGluR5, the Emax was determined as 72% and the EC50 is greater than 10000 nM.

`COc1ccc(CN2CCn3nc(COc4ccccn4)cc3C2=O)cc1` [Example B101] showed a melting point of 95 °C. At human mGluR5, the Emax was 68% and the EC50 was 1290 nM.

Consider `COc1nccnc1CN1CCn2nc(COc3cccc(F)c3)cc2C1=O` [Example B103], for which the melting point was 154.1 °C. On human mGluR5, the Emax was 63% and the EC50 was 324 nM.

`O=C1c2cc(COc3cccc(F)c3)nn2CCN1Cc1ncccc1F` [Example B104] had a melting point greater than 300 °C. Besides, at human mGluR5, the Emax was found to be 65% and the EC50 was 550 nM.
